Laboratory results reported in ChEMBL document CHEMBL5154833, “New N-aryl-N'-aryl-/(thio)ureido-/sulfamoylamino-derivatives of alkyl/alkylcarbamoyl piperazines: Effect of structural modifications on selectivity over 5-HT1A receptor” (Eur J Med Chem, 2022).

What was measured:
[1] = molecular target: T1, 5-hydroxytryptamine receptor 1A (Homo sapiens, UniProt P08908); assay: Displacement of [3H]-[…] from human full length 5-HT1AR expressed in HEK293 cells by radioligand binding assay; type: cell-based
T1 sequence (P08908 whole entry): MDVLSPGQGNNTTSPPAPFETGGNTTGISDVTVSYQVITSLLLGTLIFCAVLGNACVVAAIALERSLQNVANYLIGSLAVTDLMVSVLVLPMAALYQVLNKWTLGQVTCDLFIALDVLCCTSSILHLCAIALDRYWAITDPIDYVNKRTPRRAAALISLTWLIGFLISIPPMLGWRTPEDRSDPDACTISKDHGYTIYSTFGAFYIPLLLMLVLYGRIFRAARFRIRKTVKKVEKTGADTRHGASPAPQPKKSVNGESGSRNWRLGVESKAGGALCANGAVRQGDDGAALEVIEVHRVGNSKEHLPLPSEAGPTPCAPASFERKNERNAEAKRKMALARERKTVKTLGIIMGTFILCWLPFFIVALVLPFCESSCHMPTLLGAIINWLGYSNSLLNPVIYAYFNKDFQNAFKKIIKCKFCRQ

[2] = molecular target: 5-hydroxytryptamine receptor 2A (Homo sapiens, UniProt P28223); assay: Displacement of [3H]-ketanserin from 5-HT2AR (unknown origin) expressed in CHO-K1 cells by radioligand binding assay; type: cell-based
[3] = molecular target: T2, 5-hydroxytryptamine receptor 6 (Homo sapiens, UniProt P50406); assay: Displacement of [3H]-LSD from human full length 5HT6R expressed in HEK293 cells by radioligand binding assay; type: cell-based
[4] = molecular target: T3, D(2) dopamine receptor (Homo sapiens, UniProt P14416); assay: Displacement of [3H]-raclopride from human full length D2L receptor expressed in HEK293 cells by radioligand binding assay; type: cell-based
[5] = molecular target: 5-hydroxytryptamine receptor 7 (Homo sapiens, UniProt P34969); assay: Displacement of [3H]-5-CT from human full length 5HT7BR expressed in HEK293 cells by radioligand binding assay; type: cell-based
[6] = molecular target: T4, 5-hydroxytryptamine receptor 1A (Homo sapiens) (UniProt P08908); assay: Binding affinity to human full length 5-HT1AR expressed in HEK293 cells by Cheng-Prusoff equation analysis; type: cell-based; settings: filed as antagonist
T4 sequence (whole entry): T1 sequence (P08908 whole entry)

[7] = species on record: Homo sapiens; assay: Selectivity ratio of Ki for human full length D2L receptor expressed in HEK293 cells to Ki for human full length 5-HT1AR expressed in HEK293 cells; type: cell-based
[8] = Permeability coefficient of the compound in PBS buffer at pH 7.4 incubated for 5 hrs by PAMPA-based LC-MS analysis; type: ADME; settings: read-out: Kp
[9] = Hepatotoxicity in human HepG2 cells at 1 to 10 uM incubated for 72 hrs by MTS assay; type: toxicity, cell-based; settings: hepg2, 72 h, dose 1-10 µM
[10] = Metabolic stability in mouse liver microsomes assessed as parent compound remaining at 50 uM measured after 120 mins by UPLC-MS analysis; type: ADME, Microsome; settings: read-out: Stability
[11] = molecular target: CYP3A4 (Homo sapiens, UniProt P08684); assay: Inhibition of CYP3A4 (unknown origin) at 10 uM by luminescence based Glo assay; type: ADME; settings: CYP3A4 enzyme (unknown origin)
[12] = Hepatotoxicity in human HepG2 cells assessed as reduction in cell viability at 50 to 100 uM incubated for 72 hrs by MTS assay; type: toxicity, cell-based; settings: hepg2, 72 h, dose 50-100 µM
[13] = molecular target: T1, 5-hydroxytryptamine receptor 1A; assay: Binding affinity to 5-HT1AR (unknown origin) assessed as inhibition constant
[14] = molecular target: T2, 5-hydroxytryptamine receptor 6; assay: Binding affinity to 5-HT6R (unknown origin) assessed as inhibition constant
[15] = molecular target: T3, D(2) dopamine receptor; assay: Binding affinity to D2L receptor (unknown origin) assessed as inhibition constant
[16] = molecular target: T1, 5-hydroxytryptamine receptor 1A; assay: Displacement of [3H]-[…] from human 5-HT1AR in human brain tissue by radioligand binding assay; type: tissue-based

T3 sequence (P14416 whole entry): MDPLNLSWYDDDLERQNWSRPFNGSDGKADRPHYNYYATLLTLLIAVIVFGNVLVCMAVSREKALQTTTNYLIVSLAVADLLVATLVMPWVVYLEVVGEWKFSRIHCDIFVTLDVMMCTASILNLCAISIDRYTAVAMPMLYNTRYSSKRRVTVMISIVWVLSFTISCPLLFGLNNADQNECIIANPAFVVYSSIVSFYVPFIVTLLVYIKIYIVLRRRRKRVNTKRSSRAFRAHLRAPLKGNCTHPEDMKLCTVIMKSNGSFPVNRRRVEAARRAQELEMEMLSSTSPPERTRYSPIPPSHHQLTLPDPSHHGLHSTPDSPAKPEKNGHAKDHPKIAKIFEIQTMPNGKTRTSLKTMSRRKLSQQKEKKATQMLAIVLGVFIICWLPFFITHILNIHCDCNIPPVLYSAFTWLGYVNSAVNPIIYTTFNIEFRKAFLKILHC
T2 sequence (P50406 whole entry): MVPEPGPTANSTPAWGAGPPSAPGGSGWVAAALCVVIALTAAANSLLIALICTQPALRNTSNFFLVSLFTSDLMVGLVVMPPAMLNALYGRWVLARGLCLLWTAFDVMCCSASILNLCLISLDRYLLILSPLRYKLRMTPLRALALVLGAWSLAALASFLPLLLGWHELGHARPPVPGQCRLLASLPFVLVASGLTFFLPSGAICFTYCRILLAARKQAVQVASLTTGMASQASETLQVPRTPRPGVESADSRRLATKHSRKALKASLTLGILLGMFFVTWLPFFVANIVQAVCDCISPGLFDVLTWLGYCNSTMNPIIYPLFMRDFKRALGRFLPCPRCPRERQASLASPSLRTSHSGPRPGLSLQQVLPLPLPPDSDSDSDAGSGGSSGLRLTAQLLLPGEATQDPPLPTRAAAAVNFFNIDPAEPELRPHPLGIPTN
Chain of 5-hydroxytryptamine receptor 2A (P28223 whole entry): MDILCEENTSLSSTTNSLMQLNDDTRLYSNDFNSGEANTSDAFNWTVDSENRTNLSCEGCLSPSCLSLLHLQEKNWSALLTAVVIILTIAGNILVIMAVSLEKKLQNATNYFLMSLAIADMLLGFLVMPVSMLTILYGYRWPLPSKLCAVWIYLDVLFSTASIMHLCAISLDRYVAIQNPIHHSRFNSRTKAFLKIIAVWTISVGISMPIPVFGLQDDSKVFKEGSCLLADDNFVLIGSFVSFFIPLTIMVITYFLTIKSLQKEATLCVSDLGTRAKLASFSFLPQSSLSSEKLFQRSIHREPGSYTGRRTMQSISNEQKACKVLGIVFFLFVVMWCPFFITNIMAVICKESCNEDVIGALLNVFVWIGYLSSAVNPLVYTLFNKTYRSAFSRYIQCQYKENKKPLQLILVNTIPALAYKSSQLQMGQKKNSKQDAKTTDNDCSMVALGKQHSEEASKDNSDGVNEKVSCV
Chain of 5-hydroxytryptamine receptor 7 (P34969 whole entry): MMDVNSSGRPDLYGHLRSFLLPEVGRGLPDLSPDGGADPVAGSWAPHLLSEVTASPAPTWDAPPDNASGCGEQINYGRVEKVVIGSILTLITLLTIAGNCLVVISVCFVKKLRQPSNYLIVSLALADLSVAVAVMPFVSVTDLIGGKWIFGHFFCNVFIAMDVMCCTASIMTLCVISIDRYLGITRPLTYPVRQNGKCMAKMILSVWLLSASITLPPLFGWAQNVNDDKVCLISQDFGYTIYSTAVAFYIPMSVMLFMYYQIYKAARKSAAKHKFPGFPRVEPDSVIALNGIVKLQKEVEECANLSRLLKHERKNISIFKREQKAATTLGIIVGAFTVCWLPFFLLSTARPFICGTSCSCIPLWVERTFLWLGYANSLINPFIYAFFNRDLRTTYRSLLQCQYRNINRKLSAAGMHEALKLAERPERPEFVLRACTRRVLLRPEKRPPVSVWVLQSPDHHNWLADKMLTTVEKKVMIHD
Chain of CYP3A4 (P08684 whole entry): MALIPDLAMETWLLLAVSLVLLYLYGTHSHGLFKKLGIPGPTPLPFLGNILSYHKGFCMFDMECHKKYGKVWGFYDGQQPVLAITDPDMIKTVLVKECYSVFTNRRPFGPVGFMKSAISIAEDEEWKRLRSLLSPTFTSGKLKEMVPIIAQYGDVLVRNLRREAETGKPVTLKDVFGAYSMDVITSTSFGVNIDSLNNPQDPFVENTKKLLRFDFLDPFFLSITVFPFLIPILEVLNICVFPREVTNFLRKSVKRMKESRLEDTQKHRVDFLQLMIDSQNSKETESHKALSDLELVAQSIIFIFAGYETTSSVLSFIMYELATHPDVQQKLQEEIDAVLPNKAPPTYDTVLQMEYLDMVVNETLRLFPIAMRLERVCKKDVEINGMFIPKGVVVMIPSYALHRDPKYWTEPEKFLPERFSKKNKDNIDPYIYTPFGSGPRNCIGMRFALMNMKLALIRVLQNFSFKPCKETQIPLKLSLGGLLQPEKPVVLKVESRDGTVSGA

| Compound | Ki [1] [nM] | Ki [2] [nM] | Ki [3] [nM] | Ki [4] [nM] | Ki [5] [nM] | also measured |
| --- | --- | --- | --- | --- | --- | --- |
| O=c1n(CCCCCCN2CCN(c3cccc(Cl)c3Cl)CC2)nc2ccccn12 | 7 | 47 | 299 | 9 | 243 |  |
| O=S1(=O)N(CCCCCCN2CCN(c3cccc(Cl)c3)CC2)c2cccc3c2N1CCC3 | 70 | 282 | 1690 | 253 | 162 |  |
| O=c1n(CCCCCCN2CCN(c3cccc4cccnc34)CC2)nc2ccccn12 | 3 | 2200 | 4140 | 143 | 655 | Kb [6]: 3.6 nM |
| O=c1n(CC2CCC(CN3CCN(c4cccc(Cl)c4)CC3)CC2)nc2ccccn12 (stereo not given) | 31 | 493 | 4580 | 559 | 257 | Ratio Ki [7]: 18 |
| Cn1c(=O)c2c(ncn2C)n(C)c1=O [CAFFEINE] |  |  |  |  |  | Papp at 5 h [8]: 12.2 ×10⁻⁶ cm/s |
| O=c1n(Cc2ccc(CN3CCN(c4ccc(Cl)cc4)CC3)cc2)nc2ccccn12 | 467 | 1450 | 2140 | 1390 | 201000 |  |
| O=c1n(CCCCCCN2CCN(c3cccc(Cl)c3)CC2)c2cccc3c2n1CCC3 | 74 | 66 | 1140 | 18 | 61 |  |
| O=c1n(CCCCCCN2CCN(c3cccc4ccccc34)CC2)nc2ccccn12 | 6 | 223 | 285 | 32 | 186 |  |
| NS(=O)(=O)NCCCCCCN1CCN(c2cccc(Cl)c2)CC1 | 21 | 329 | 1530 | 229 | 167 |  |
| O=c1n(Cc2ccc(CN3CCN(c4cccc(Cl)c4)CC3)cc2)nc2ccccn12 | 52 | 1070 | 1160 | 148 | 3470 |  |
| O=c1n(CCCCCCN2CCN(c3cccc4c3OCCO4)CC2)nc2ccccn12 | 1 | 434 | 2840 | 60 | 271 | Ratio Ki [7]: 60; Kb [6]: 2 nM |
| NC(=O)N1CCN(c2cccc(Cl)c2)CC1 | 7010 | 32400 | 7490 | 116000 | 22800 |  |
| O=C(NCCCCCCn1nc2ccccn2c1=O)N1CCN(c2cccc(Cl)c2)CC1 | 35 | 530 | 2550 | 1940 | 462 | Ratio Ki [7]: 55; Activity [9]: Non-Toxic; remaining at 2 h, 50 µM [10]: 0%; inhibition at 10 µM [11]: 75%; Activity [12]: Toxic; Papp at 5 h [8]: 2.9 ×10⁻⁶ cm/s |
| NC(=O)NCCCCCCN1CCN(c2cccc(Cl)c2)CC1 | 39 | 195 | 4930 | 235 | 183 |  |
| Clc1cccc(N2CCNCC2)c1 [CHLOROPHENYLPIPERAZINE] |  |  |  |  |  | Ki [13]: 42 nM; Ki [14]: 1750 nM; Ki [15]: > 10000 nM |
| O=c1[nH]c2ccccc2n1CCN1CCN(c2cccc(C(F)(F)F)c2)CC1 [FLIBANSERIN] |  |  |  |  |  | Ki [16]: 11.8 nM |
| S=c1n(CCCCCCN2CCN(c3cccc(Cl)c3)CC2)c2cccc3c2n1CCC3 | 206 | 258 | 582 | 85 | 171 |  |
| O=c1n(CCCCCCN2CCN(c3cccc(C(F)(F)F)c3)CC2)nc2ccccn12 | 17 | 291 | 404 | 62 | 1070 |  |
